Like-named read-outs stand apart in the source and are kept apart here.
Experiments:
Btk [1] = biological target: Btk (Mus musculus (Mouse), UniProt P35991); assay: Btk occupancy in vivo (PBMCs or splenocytes, PCI-33380 labeling); details: 4 hours after dosing, Babc/L mice
Protocol: For analysis of Btk occupancy in Babc/L mice following oral dosing of compounds after 4 hours. Isolating peripheral blood mononuclear cells (PBMCs) with mouse peripheral blood separation kit (Hao Yang Biological Manufacture CO., LTD, Tianjin) were collected from Babc/L mice (1 ml blood from two mice). Spleens were processed to splenocytes followed by 5 min incubation in red blood cell lysing buffer (from mouse peripheral blood separation kit).

EGFR = EGFR (Homo sapiens (Human), UniProt P00533); assay: biochemical
ITK = ITK (Homo sapiens (Human), UniProt Q08881); assay: biochemical
LYN = LYN (Homo sapiens (Human), UniProt P07948); details: read-out: LYN IC50, [ATP]=20 μM
LYN, sequence (P07948 whole entry, looked up, species assumed): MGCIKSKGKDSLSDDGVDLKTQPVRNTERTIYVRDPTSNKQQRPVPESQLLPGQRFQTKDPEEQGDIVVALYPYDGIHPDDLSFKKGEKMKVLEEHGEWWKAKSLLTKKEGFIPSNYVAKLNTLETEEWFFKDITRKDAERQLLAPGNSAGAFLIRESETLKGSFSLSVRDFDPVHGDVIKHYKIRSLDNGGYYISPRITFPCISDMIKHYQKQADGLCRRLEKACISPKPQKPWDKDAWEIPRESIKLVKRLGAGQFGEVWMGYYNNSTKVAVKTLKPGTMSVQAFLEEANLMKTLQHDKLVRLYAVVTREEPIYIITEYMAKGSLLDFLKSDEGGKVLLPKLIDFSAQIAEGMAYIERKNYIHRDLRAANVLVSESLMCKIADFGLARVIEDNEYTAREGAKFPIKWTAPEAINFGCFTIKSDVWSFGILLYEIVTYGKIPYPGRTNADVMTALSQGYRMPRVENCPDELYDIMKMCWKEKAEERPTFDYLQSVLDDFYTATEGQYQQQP
Protocol: (§1) Btk kinase activity was determined using a homogenous time resolved fluorescence (HTRF) methodology. Measurements were performed in a reaction volume of 15 μL using 384-well assay plates. Kinase enzyme, inhibitor, ATP and 1 μM peptide substrate were incubated in a reaction buffer compose of Hepes50 mM (pH7.0), NaN3 0.02%, BSA 0.01%, Orthocanadate 0.1 mM. […] For each compound, enzyme activity as measured at various concentrations of compound, Negative control reactions were performed in the absence of inhibitor in two replicates and eight no enzyme controls were used to determine baseline fluorescence levels.
(§2) For LYN assay, [ATP]=20 μM, LYN=0.12 n M. For LCK assay, [ATP]=20 μM, LCK=0.2 nM.

TEC = TEC (Homo sapiens (Human), UniProt P42680); assay: biochemical
TEC, sequence (P42680 whole entry, looked up): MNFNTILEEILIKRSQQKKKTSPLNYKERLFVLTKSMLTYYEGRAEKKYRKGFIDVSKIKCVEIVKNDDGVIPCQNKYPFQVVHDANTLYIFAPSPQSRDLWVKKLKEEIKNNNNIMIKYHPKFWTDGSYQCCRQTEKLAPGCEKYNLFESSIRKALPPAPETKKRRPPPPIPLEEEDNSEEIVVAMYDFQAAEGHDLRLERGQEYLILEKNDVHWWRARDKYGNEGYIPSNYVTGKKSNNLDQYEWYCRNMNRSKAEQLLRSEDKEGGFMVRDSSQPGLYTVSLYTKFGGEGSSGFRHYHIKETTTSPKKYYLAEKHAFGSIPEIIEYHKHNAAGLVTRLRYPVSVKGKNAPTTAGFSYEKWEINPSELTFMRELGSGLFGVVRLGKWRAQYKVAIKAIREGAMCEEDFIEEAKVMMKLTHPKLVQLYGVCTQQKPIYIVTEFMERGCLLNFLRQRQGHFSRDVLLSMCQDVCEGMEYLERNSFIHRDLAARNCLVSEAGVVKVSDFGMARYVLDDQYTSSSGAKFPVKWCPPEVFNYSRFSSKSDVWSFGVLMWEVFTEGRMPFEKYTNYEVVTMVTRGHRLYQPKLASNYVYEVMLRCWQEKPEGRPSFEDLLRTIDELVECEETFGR

BTK [2] = biological target: T1, BTK (Homo sapiens (Human), UniProt Q06187)
T1 sequence (Q06187 whole entry, looked up, species assumed): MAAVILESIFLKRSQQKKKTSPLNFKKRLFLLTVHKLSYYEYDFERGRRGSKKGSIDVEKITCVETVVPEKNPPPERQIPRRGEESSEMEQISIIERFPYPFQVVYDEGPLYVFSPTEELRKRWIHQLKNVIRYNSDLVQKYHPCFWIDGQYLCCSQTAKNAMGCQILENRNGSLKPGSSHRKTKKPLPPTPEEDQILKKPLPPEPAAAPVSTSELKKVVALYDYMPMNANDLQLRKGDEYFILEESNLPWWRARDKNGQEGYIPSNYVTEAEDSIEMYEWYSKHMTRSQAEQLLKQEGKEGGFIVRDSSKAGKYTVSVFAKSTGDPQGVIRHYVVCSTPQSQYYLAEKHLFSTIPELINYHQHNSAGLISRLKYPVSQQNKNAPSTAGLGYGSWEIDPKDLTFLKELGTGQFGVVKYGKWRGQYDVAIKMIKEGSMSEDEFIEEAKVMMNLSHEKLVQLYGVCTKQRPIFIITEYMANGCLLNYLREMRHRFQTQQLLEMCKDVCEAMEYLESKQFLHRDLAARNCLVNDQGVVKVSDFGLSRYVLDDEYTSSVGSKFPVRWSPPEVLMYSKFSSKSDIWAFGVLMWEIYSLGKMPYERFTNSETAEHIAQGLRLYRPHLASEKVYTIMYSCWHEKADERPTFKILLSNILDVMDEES

LCK = LCK (Homo sapiens (Human), UniProt P06239); details: read-out: LCK IC50; [ATP]=20 μM, LCK=0.2 nM
LCK, sequence (P06239 whole entry, looked up, species assumed): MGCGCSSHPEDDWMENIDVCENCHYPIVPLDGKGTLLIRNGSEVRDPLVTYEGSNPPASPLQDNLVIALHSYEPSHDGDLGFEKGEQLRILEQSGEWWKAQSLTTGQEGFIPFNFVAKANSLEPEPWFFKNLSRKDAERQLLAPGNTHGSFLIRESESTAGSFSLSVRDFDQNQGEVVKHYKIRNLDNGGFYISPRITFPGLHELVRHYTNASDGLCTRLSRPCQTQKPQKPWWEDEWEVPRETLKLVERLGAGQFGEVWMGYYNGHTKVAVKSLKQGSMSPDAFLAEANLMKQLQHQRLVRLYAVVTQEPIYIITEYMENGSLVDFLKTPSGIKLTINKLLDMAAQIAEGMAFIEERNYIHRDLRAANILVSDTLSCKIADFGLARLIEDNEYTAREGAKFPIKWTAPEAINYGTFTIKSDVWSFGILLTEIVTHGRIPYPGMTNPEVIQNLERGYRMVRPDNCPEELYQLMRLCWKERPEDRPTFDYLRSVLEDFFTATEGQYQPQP
Protocol: as §1, §2

BTK [3] = biological target: T1, BTK; assay: biochemical

EGFR, sequence (P00533 whole entry, looked up, species assumed): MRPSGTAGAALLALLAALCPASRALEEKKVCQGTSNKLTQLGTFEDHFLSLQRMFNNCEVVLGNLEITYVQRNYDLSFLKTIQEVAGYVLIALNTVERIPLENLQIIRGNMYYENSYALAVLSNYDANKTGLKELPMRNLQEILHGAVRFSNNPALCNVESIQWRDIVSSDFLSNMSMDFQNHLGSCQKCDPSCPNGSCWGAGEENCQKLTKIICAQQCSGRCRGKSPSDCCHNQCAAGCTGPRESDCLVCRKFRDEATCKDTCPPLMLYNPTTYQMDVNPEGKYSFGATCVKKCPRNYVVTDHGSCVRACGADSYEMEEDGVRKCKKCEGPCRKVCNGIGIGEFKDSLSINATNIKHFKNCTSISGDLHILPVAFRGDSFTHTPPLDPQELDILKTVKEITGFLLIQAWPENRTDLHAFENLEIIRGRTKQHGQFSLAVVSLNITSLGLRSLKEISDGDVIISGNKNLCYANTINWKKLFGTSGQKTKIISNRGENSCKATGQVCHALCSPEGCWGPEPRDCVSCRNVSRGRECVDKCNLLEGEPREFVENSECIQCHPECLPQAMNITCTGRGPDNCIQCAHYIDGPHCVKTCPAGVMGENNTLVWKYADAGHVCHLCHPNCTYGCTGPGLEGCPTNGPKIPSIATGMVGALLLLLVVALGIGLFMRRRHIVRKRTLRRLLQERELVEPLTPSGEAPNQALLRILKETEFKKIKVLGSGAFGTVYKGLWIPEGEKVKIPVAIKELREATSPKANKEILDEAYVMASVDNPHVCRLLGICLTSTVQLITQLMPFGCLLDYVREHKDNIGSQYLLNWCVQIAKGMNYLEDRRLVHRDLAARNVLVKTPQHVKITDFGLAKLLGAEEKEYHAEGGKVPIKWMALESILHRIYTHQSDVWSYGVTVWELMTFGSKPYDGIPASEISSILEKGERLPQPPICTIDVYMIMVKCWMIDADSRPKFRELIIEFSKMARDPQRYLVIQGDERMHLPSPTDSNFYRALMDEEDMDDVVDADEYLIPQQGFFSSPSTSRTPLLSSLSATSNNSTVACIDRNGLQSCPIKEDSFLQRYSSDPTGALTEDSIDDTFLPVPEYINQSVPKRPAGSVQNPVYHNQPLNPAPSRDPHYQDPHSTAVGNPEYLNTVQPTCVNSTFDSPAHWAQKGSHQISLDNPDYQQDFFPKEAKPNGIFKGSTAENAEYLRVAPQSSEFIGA
Btk, sequence (P35991 whole entry, looked up): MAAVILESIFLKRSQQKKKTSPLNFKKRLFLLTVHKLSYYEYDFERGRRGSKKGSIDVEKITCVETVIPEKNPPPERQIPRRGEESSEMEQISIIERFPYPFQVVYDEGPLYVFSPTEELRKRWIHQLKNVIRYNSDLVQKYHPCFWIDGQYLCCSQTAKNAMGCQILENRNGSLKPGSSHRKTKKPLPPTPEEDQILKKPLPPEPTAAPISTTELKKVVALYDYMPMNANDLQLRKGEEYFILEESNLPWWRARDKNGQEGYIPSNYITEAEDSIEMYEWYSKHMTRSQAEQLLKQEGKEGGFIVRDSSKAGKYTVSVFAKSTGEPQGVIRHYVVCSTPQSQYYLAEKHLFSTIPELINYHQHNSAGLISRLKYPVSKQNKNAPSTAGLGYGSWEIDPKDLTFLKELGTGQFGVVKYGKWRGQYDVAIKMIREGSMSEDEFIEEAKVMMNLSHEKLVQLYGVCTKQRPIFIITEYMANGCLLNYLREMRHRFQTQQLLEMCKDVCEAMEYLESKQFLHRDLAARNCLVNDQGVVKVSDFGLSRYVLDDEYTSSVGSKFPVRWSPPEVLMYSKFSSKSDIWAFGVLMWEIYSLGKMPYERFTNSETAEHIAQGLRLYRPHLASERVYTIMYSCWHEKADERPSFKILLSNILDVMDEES
ITK, sequence (Q08881 whole entry, looked up, species assumed): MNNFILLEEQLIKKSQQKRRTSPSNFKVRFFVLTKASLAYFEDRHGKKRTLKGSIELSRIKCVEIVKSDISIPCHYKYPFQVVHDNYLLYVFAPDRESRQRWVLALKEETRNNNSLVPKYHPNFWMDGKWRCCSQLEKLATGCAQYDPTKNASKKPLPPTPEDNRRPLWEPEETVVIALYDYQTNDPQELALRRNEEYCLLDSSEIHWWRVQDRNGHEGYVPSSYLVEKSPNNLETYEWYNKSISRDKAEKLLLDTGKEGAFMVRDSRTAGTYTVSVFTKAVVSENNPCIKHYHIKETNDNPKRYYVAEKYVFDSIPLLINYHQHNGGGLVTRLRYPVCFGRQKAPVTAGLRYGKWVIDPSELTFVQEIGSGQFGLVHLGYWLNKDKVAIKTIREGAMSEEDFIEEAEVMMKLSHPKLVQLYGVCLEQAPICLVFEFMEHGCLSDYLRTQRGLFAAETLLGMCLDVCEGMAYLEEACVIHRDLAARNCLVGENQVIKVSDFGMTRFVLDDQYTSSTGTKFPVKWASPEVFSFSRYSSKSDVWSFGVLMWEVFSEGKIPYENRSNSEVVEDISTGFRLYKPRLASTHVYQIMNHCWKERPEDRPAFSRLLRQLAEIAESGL

Structure (SMILES)	IC50 (LYN)	IC50 (TEC)	IC50 (BTK [2]; read-out: BTK IC50)	IC50 (BTK [2]; read-out: BTK Inhibition)	IC50 (LCK)	also measured
CC#CC(=O)N1CCCC[C@H]1c1nc(-c2ccc(Oc3cccc(OC)c3F)cc2)c2c(C)nccn12 [Example 5, (S)-1-(2-(1-(4-(2-Fluoro-3-methoxyphenoxy)phenyl)-8-methylimidazo[1,5-a]pyrazin-3-yl)piperidin-1-yl)but-2-yn-1-one]						Btk occupancy in vivo (Btk [1]; 10 mg/kg single oral dose): full occupancy
C=CC(=O)N1CCC[C@@H](c2nc(-c3ccc(Oc4cccc(OC)c4F)cc3)c3cnccn23)C1 [Example 1, (R)-1-(3-(1-(4-(2-fluoro-3-methoxyphenoxy)phenyl)imidazo[1,5-a]pyrazin-3-yl)piperidin-1-yl)prop-2-en-1-one]	> 10 µM	100 to 1000 nM	< 10 nM	< 10 nM	> 10 µM	IC50 (EGFR): 100 to 1000 nM; Btk occupancy in vivo (Btk [1]; 5 mg/kg single oral dose): full occupancy; IC50 (ITK): 1 to 10 µM
C=CC(=O)N1CCC[C@H]1c1nc(-c2ccc(Oc3cccc(OC)c3F)cc2)c2cnccn12 [Example 30, (S)-1-(2-(1-(4-(2-fluoro-3-methoxyphenoxy)phenyl)imidazo[1,5-a]pyrazin-3-yl)pyrrolidin-1-yl)prop-2-en-1-one]	> 10 µM	100 to 1000 nM	< 10 nM	< 10 nM	> 10 µM	Btk occupancy in vivo (Btk [1]; 5 mg/kg single oral dose): full occupancy
C=CC(=O)N1CCC[C@H]1c1nc(-c2ccc(Oc3cccc(F)c3F)cc2)c2cnccn12 [Example 20, (S)-1-(2-(1-(4-(2,3-difluorophenoxy)phenyl)imidazo[1,5-a]pyrazin-3-yl)pyrrolidin-1-yl)prop-2-en-1-one]	> 10 µM	100 to 1000 nM	< 10 nM	< 10 nM	> 10 µM	IC50 (EGFR): 1000 to 10000 nM; IC50 (ITK): 1 to 10 µM
C=CC(=O)N1CCCC[C@H]1c1nc(-c2ccc(Oc3cccc(OC)c3F)cc2)c2c(C)nccn12 [Example 27, (S)-1-(2-(1-(4-(2-fluoro-3-methoxyphenoxy)phenyl)-8-methylimidazo[1,5-a]pyrazin-3-yl)piperidin-1-yl)prop-2-en-1-one]	> 10 µM	100 to 1000 nM	< 10 nM	< 10 nM	> 10 µM	IC50 (EGFR): 100 to 1000 nM; Btk occupancy in vivo (Btk [1]; 10 mg/kg single oral dose): full occupancy; IC50 (ITK): 1 to 10 µM
C=CC(=O)N1CCC[C@H]1c1nc(-c2ccc(OCc3c(F)cccc3F)cc2)c2cnccn12 [Example 136, (S)-1-(2-(1-(4-((2,6-difluorobenzyl)oxy)phenyl)imidazo[1,5-a]pyrazin-3-yl)pyrrolidin-1-yl)prop-2-en-1-one]	> 10 µM	100 to 1000 nM	10 to 100 nM		> 10 µM	IC50 (EGFR): 1000 to 10000 nM; IC50 (ITK): 1 to 10 µM; IC50 (BTK [3]): 10 to 100 nM
COc1cccc(Oc2ccc(-c3nc([C@@H]4CCN(C(=O)/C=C/CN(C)C5CC5)C4)n4ccnc(C)c34)cc2)c1F [Example 105, (R,E)-4-(cyclopropyl(methyl)amino)-1-(3-(1-(4-(2-fluoro-3-methoxyphenoxy)phenyl)-8-methylimidazo[1,5-a]pyrazin-3-yl)pyrrolidin-1-yl)but-2-en-1-one]				< 10 nM		
C=CC(=O)N1CCC[C@H]1c1nc(-c2ccc(C(=O)Nc3ccccn3)cc2)c2c(C3CC3)nccn12 [Example 190, (S)-4-(3-(1-acryloylpyrrolidin-2-yl)-8-cyclopropylimidazo [1,5-a]pyrazin-l-yl)-N-(pyridin-2-yl)benzamide]				> 10000 nM		
C=CC(=O)N1CC[C@@H](c2nc(-c3ccc(Oc4cccc(OC)c4F)cc3)c3cncc(OCC)n23)C1 [Example 94, (R)-1-(3-(5-ethoxy-1-(4-(2-fluoro-3-methoxyphenoxy)phenyl)imidazo[1,5-a]pyrazin-3-yl)pyrrolidin-1-yl)prop-2-en-1-one]				< 10 nM		
C=CC(=O)N1CC[C@@H](c2nc(-c3ccc(Oc4cccc(OC)c4F)cc3)c3cncc(OC4CCC4)n23)C1 [Example 100, (R)-1-(3-(5-cyclobutoxy-1-(4-(2-fluoro-3-methoxyphenoxy)phenyl)imidazo[1,5-a]pyrazin-3-yl)pyrrolidin-1-yl)prop-2-en-1-one]				< 10 nM		
C=CC(=O)N1CCC[C@H]1c1nc(-c2ccc(Oc3cccc(OC)c3)cc2)c2cnccn12 [Example 16, (S)-1-(2-(1-(4-(3-methoxyphenoxy)phenyl)imidazo[1,5-a]pyrazin-3-yl)pyrrolidin-1-yl)prop-2-en-1-one]	> 10 µM	100 to 1000 nM	< 10 nM	< 10 nM	> 10 µM	IC50 (EGFR): 1000 to 10000 nM; IC50 (ITK): 1 to 10 µM
C=CC(=O)N1CCCC[C@H]1c1nc(-c2ccc(C(=O)Nc3ccccn3)cc2)c2c(C)nccn12 [Example 170, (S)-4-(3-(1-acryloylpiperidin-2-yl)-8-methylimidazo [1,5-a]pyrazin-1-yl)-N-(pyridin-2-yl)benzamide]				< 10 nM		
CC#CC(=O)N1CC[C@@H](c2nc(-c3ccc(Oc4cccc(OC)c4F)cc3)c3cncc(OCC)n23)C1 [Example 93, (R)-1-(3-(5-ethoxy-1-(4-(2-fluoro-3-methoxyphenoxy)phenyl)imidazo[1,5-a]pyrazin-3-yl)pyrrolidin-1-yl)but-2-yn-1-one]				< 10 nM		
CC#CC(=O)N1CCCC[C@H]1c1nc(-c2ccc(C(=O)Nc3ccccn3)cc2)c2c(C3CC3)nccn12 [Example 192, (S)-4-(3-(1-(but-2-ynoyl)piperidin-2-yl)-8-cyclopropylimidazo[1,5-a]pyrazin-1-yl)-N-(pyridin-2-yl)benzamide]				> 10000 nM		
C=CC(=O)N1CCCC[C@H]1c1nc(-c2ccc(Oc3cccc(F)c3)cc2)c2c(C)nccn12 [Example 55, (S)-1-(2-(1-(4-(3-fluorophenoxy)phenyl)-8-methylimidazo[1,5-a]pyrazin-3-yl)piperidin-1-yl)prop-2-en-1-one]				< 10 nM		
CC#CC(=O)N1CCCC[C@H]1c1nc(-c2ccc(Oc3cccc(OC)c3F)cc2)c2c(C(F)(F)F)nccn12 [Example 122, (S)-1-(2-(1-(4-(2-fluoro-3-methoxyphenoxy)phenyl)-8-(trifluoromethyl)imidazo[1,5-a]pyrazin-3-yl)piperidin-1-yl)but-2-yn-1-one]				> 10000 nM		
C=CC(=O)N1CC[C@@H](c2nc(-c3ccc(Oc4cccc(OC)c4F)cc3)c3cncc(OC4CCOC4)n23)C1 (stereo partly drawn) [Example 98, 1-((3R)-3-(1-(4-(2-fluoro-3-methoxyphenoxy)phenyl)-5-((tetrahydrofuran-3-yl)oxy)imidazo[1,5-a]pyrazin-3-yl)pyrrolidin-1-yl)prop-2-en-1-one]				< 10 nM		
C=CC(=O)N1CCC[C@H]1c1nc(-c2ccc(C(=O)Nc3ccccn3)cc2)c2c(C)ncc(C)n12 [Example 174, (S)-4-(3-(1-acryloylpyrrolidin-2-yl)-5,8-dimethylimidazo [1,5-a]pyrazin-1-yl)-N-(pyridin-2-yl)benzamide]				< 10 nM		
C=CC(=O)N1CC[C@@H](c2nc(-c3ccc(Oc4cccc(OC)c4F)cc3)c3cnccn23)C1 [Example 68, (R)-1-(3-(1-(4-(2-fluoro-3-methoxyphenoxy)phenyl)imidazo[1,5-a]pyrazin-3-yl)pyrrolidin-1-yl)prop-2-en-1-one]				< 10 nM		
